Publication PMC7774954, “Interactomic affinity profiling by holdup assay: Acetylation and distal residues impact the PDZome-binding specificity of PTEN phosphatase” (PLoS ONE, 2020)
*1 amine or outer side, *2 acyl side, *3 side chain or, on linkers, in order; H or OH if unused. Where a SMILES comes first, the peptide text is derived from it. The star is where a group is joined. X1 = O=C(CCCC[C@@H]1SC[C@@H]2NC(=O)N[C@@H]21)NCCCOCCOCCOCCCN*; Suc = O=C(CCC(=O)[*:2])[*:1]

Assays:
GRIP1-2 = assay: Holdup assay, GRIP1-2; format: binding, human
DFNB31-2 = assay: Holdup assay, DFNB31-2; format: binding, human
LNX2-3 = assay: Holdup assay, LNX2-3; format: binding, human
DLG1 PDZ 2 = molecular target: T1, DLG1 PDZ 2 (Homo sapiens, UniProt Q12959); assay: Holdup assay, DLG1-2; format: binding; details: for BI: DLG1-2
T1 construct: made in house; host or cells: E. coli
T1 sequence (Q12959 319-405 limits assumed): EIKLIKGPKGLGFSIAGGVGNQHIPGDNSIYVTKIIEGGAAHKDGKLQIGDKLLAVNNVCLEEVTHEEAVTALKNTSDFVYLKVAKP
Method: (§1) The holdup assay was performed on a Tecan freedom Evo200 robot with 384-well plates in singlicate for the three 11-mer PTEN variants and the 13-mer PTEN peptide as described in [31, 32]. Briefly, prior to interaction assay, 2.5 μL of streptavidin resin was saturated in each well with 20 μL of biotinylated PBM peptides (42 μM) and then washed twice with an excess of free biotin, while the reference resin was incubated only with biotin. Right before the holdup experiment, the PDZ library was spiked with an internal standard of lysozyme. Then, the biotin- or PBM-saturated resin was incubated, each in a distinct well of a 384-well plate, with complete cell lysates diluted so that the concentration of the tag-PDZ present in the crude extract is adjusted at 4 μM. After a sufficient time to reach complex equilibrium (15 min.), a fast and mild filtration step is performed and the tag-PDZ concentrations were measured by capillary electrophoresis instrument (LabChip GXII, PerkinElmer, Massachusets, USA). Standard markers were used to convert migration time into molecular weight on the LabChip software and inappropriate molecular weight markers were corrected or excluded.
(§2) For filtered data, the BI was extracted with the following equation (Eq 1) that estimates the depleted fraction after superimposition of the sample and reference electropherograms: BI=Iref−Ilig/Iref (1) where Iref and Ilig are the intensities of the tag-PDZ peaks measured, for each PDZ domain/PBM peptide interaction pair, in the biotin reference and the PBM electropherograms, respectively.
(§3) BIs were transformed into dissociation constants (KD) using the following formula: KD=([PDZtot]−BI·[PDZtot])·([PBMtot]−BI·[PDZtot])/BI·[PDZtot] (2) where [PDZtot] and [PBMtot] correspond to the total concentrations of the PDZ domain (usually around 4 μM) and the PBM peptide used during the assay. Since the PBMtot concentration in the resin during the holdup assay parameter may differ from one peptide to another and remains unknown, it is impossible to directly convert BI values into KD constants. We systematically determined the KD constants for a subset of PDZ/PBM pairs by competitive FP. […] For each PBM, the average peptide concentration was calculated after outlier rejection based on the absolute distances from the median as compared to three times the standard deviation (3σ rule), with never more than 2 values rejected.

CASK-1 = assay: Holdup assay, CASK-1; format: binding, human
MPDZ-11 = MPDZ-11 (Homo sapiens, UniProt O75970); assay: Holdup assay, MPDZ-11; format: binding
MPDZ-11, sequence (O75970 whole entry): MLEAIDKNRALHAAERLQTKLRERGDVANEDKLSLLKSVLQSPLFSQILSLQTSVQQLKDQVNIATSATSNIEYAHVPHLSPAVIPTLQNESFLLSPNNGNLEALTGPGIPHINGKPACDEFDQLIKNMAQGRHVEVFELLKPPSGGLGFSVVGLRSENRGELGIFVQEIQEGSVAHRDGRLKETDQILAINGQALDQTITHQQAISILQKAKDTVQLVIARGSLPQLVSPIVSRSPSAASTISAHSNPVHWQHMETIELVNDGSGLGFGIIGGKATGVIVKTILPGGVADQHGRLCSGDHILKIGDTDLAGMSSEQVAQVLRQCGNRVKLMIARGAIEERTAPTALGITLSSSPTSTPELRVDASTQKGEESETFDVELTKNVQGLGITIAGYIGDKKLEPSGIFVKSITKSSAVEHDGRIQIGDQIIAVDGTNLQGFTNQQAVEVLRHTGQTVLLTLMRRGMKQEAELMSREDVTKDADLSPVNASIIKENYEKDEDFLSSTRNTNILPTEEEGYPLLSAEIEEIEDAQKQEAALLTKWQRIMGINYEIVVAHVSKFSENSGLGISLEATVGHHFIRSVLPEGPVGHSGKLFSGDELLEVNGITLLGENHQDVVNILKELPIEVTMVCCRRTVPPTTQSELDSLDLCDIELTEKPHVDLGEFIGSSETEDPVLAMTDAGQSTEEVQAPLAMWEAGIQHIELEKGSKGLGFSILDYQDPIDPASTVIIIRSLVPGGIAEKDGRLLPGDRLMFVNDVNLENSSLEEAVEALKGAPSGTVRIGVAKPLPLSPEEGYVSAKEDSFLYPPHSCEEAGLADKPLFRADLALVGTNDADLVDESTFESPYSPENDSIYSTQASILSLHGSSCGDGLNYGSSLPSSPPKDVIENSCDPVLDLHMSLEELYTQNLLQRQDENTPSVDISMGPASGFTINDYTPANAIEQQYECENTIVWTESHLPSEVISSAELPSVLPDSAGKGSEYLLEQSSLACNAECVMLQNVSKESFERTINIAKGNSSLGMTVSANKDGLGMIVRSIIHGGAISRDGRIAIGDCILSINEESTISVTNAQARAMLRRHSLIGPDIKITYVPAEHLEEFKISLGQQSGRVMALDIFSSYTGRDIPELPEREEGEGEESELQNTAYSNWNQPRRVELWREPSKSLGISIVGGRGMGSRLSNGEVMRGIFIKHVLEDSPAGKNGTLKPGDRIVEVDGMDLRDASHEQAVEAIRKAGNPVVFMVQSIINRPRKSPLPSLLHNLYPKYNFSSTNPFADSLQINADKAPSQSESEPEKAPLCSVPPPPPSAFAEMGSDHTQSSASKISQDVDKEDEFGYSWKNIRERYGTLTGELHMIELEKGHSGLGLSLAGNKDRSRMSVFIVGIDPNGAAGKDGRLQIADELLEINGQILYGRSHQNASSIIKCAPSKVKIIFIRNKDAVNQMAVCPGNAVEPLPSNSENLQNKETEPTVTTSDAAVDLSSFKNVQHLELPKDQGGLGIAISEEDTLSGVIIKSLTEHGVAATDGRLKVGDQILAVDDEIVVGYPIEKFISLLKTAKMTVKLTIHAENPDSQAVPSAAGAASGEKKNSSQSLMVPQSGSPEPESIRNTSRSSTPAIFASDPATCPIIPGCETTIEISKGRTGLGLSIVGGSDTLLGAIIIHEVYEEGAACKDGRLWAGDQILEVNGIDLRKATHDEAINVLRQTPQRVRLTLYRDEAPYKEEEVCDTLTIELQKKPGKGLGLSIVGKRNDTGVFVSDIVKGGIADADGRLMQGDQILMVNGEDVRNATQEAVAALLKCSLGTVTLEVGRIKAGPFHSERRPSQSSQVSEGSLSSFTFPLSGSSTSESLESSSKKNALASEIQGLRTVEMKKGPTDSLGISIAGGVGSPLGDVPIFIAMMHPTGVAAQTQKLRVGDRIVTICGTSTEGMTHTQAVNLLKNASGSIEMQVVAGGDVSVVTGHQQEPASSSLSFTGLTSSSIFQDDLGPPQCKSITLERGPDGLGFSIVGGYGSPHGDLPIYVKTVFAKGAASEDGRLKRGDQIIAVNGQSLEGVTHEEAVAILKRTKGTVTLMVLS

GIPC2-1 = molecular target: T2, GIPC2-1 (Homo sapiens, UniProt Q8TF65); assay: Holdup assay, GIPC2-1; format: binding
T2 sequence (Q8TF65 1-315): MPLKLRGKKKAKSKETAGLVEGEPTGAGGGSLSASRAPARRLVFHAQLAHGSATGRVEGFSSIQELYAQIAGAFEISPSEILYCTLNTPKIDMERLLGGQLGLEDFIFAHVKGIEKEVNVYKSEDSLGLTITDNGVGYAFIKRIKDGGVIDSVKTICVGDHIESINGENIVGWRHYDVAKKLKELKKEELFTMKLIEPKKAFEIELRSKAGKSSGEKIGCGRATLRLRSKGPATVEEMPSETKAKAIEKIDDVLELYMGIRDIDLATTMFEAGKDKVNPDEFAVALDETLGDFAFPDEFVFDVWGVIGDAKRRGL

ARHGEF12-1 = molecular target: T3, ARHGEF12-1 (Homo sapiens, UniProt Q9NZN5); assay: Holdup assay, ARHGEF12-1; format: binding
T3 sequence (Q9NZN5 72-151): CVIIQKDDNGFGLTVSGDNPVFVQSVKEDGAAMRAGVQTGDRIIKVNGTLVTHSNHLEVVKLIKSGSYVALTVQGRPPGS

APBA3-1 = assay: Holdup assay, APBA3-1; format: binding, human
MLLT4-1 = assay: Holdup assay, MLLT4-1; format: binding, human
CARD11-1 = assay: Holdup assay, CARD11-1; format: binding, human
IL16-2 = assay: Holdup assay, IL16-2; format: binding, human
MPDZ-10 = MPDZ-10 (Homo sapiens, UniProt O75970); assay: Holdup assay, MPDZ-10; format: binding
MPDZ-10, sequence (O75970 whole entry): as the sequence (O75970 whole entry) above

GRIP2-6 = assay: Holdup assay, GRIP2-6; format: binding, human
APBA1-1 = assay: Holdup assay, APBA1-1; format: binding, human
APBA2-1 = assay: Holdup assay, APBA2-1; format: binding, human
PTPN13 PDZ 4 = molecular target: T4, PTPN13 PDZ 4 (Homo sapiens, UniProt Q12923); assay: Holdup assay, PTPN13-4; format: binding; details: for BI: PDZ domain PTPN13-4
T4 construct: made in house; host or cells: E. coli
T4 sequence (Q12923 1788-1868 limits assumed): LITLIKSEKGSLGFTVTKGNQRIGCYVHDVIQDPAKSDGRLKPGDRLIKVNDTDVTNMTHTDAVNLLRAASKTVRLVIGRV
Method: as §1, §2, §3

`CC[C@H](C)[C@H](NC(=O)[C@H](CCC(N)=O)NC(=O)[C@@H](NC(=O)[C@H](Cc1c[nH]cn1)NC(=O)[C@H](CCC(N)=O)NC(=O)[C@H](CC(=O)O)NC(=O)[C@H](CCC(=O)O)NC(=O)[C@H](CC(=O)O)NC(=O)CCC(=O)NCCCOCCOCCOCCCNC(=O)CCCC[C@@H]1SC[C@@H]2NC(=O)N[C@@H]21)[C@@H](C)O)C(=O)N[C@H](C(=O)N[C@@H](CCCNC(=N)N)C(=O)N[C@H](C(=O)O)C(C)C)[C@@H](C)O` [PTEN_KR] ({X1-Suc}-DEDQHTQITRV-OH) showed a BI (GRIP1-2) of -0.06, a LogKD (GRIP1-2) of 3.655 and a BI (DFNB31-2) of -0.046. For the same molecule, the LogKD (DFNB31-2) was 3.655, the BI (LNX2-3) was 0.021 and the LogKD (LNX2-3) was 3.655. For the same molecule, the Kd (DLG1 PDZ 2) was 70.8 µM, the BI (DLG1 PDZ 2) was 0.253 and the LogKD (CASK-1) was 3.655. It also gave a BI (MPDZ-11) of 0.02, a LogKD (MPDZ-11) of 3.655 and a LogKD (GIPC2-1) of 3.655. For the same molecule, the BI (ARHGEF12-1) was 0.433, the Kd (ARHGEF12-1) was 30.5 µM and the BI (APBA3-1) was -0.056. It also gave a LogKD (APBA3-1) of 3.655, a BI (MLLT4-1) of 0.021 and a LogKD (MLLT4-1) of 3.655. For the same molecule, the BI (CARD11-1) was -0.097, the LogKD (CARD11-1) was 3.655 and the BI (IL16-2) was -0.114. It also gave a LogKD (IL16-2) of 3.655.
`CC[C@H](C)[C@H](NC(=O)[C@H](CCC(N)=O)NC(=O)[C@@H](NC(=O)[C@H](Cc1c[nH]cn1)NC(=O)[C@H](CCC(N)=O)NC(=O)[C@H](CC(=O)O)NC(=O)[C@H](CCC(=O)O)NC(=O)[C@H](CC(=O)O)NC(=O)[C@H](Cc1ccccc1)NC(=O)[C@@H]1CCCN1C(=O)CCC(=O)NCCCOCCOCCOCCCNC(=O)CCCC[C@@H]1SC[C@@H]2NC(=O)N[C@@H]21)[C@@H](C)O)C(=O)N[C@H](C(=O)N[C@@H](CCCCN)C(=O)N[C@H](C(=O)O)C(C)C)[C@@H](C)O` [PTEN_13] ({X1-Suc}-PFDEDQHTQITKV-OH) showed a BI (GRIP1-2) of 0.009, a BI (DFNB31-2) of 0.036 and a BI (MPDZ-10) of 0.493. The Kd (MPDZ-10) was 15.5 µM, the BI (LNX2-3) was -0.083 and the BI (DLG1 PDZ 2) was 0.168. It also gave a BI (CASK-1) of -0.07, a BI (MPDZ-11) of 0.012 and a LogKD (MPDZ-11) of 3.826. For the same molecule, the BI (GIPC2-1) was -0.087, the BI (ARHGEF12-1) was 0.169 and the BI (GRIP2-6) was -0.013. For the same molecule, the BI (APBA3-1) was 0.015, the BI (MLLT4-1) was 0.007 and the BI (APBA1-1) was -0.05. For the same molecule, the BI (CARD11-1) was -0.006, the BI (APBA2-1) was 0.029 and the BI (IL16-2) was -0.025. It also gave a Kd (PTPN13 PDZ 4) of 35.8 µM and a BI (PTPN13 PDZ 4) of 0.306.
With `CC[C@H](C)[C@H](NC(=O)[C@H](CCC(N)=O)NC(=O)[C@@H](NC(=O)[C@H](Cc1c[nH]cn1)NC(=O)[C@H](CCC(N)=O)NC(=O)[C@H](CC(=O)O)NC(=O)[C@H](CCC(=O)O)NC(=O)[C@H](CC(=O)O)NC(=O)CCC(=O)NCCCOCCOCCOCCCNC(=O)CCCC[C@@H]1SC[C@@H]2NC(=O)N[C@@H]21)[C@@H](C)O)C(=O)N[C@H](C(=O)N[C@@H](CCCCNC(C)=O)C(=O)N[C@H](C(=O)O)C(C)C)[C@@H](C)O` [PTEN_Ac] the BI (GRIP1-2) was -0.02, the LogKD (GRIP1-2) was 3.605 and the BI (DFNB31-2) was -0.091. It also gave a LogKD (DFNB31-2) of 3.605, a BI (MPDZ-10) of 0.391 and a Kd (MPDZ-10) of 41.2 µM. The Kd (DLG1 PDZ 2) was 35.6 µM, the BI (DLG1 PDZ 2) was 0.425 and the BI (CASK-1) was -0.102. The LogKD (CASK-1) was 3.605, the BI (MPDZ-11) was 0.145 and the LogKD (GIPC2-1) was 3.605. For the same molecule, the BI (ARHGEF12-1) was 0.535, the Kd (ARHGEF12-1) was 22.5 µM and the BI (GRIP2-6) was -0.084. For the same molecule, the LogKD (GRIP2-6) was 3.605, the BI (APBA3-1) was -0.113 and the LogKD (APBA3-1) was 3.605. It also gave a BI (APBA1-1) of -0.002, a LogKD (APBA1-1) of 3.605 and a BI (CARD11-1) of -0.116. It also gave a LogKD (CARD11-1) of 3.605, a BI (APBA2-1) of -0.029 and a LogKD (APBA2-1) of 3.605. The BI (IL16-2) was -0.157, the LogKD (IL16-2) was 3.605 and the Kd (PTPN13 PDZ 4) was 10.4 µM. For the same molecule, the BI (PTPN13 PDZ 4) was 0.707 and the “binding of PTPN13-4 (in words)” value (PTPN13 PDZ 4; PTPN13-4) was “PTPN13-4 binds to PTEN_Ac”.
With `CC[C@H](C)[C@H](NC(=O)[C@H](CCC(N)=O)NC(=O)[C@@H](NC(=O)[C@H](Cc1c[nH]cn1)NC(=O)[C@H](CCC(N)=O)NC(=O)[C@H](CC(=O)O)NC(=O)[C@H](CCC(=O)O)NC(=O)[C@H](CC(=O)O)NC(=O)CCC(=O)NCCCOCCOCCOCCCNC(=O)CCCC[C@@H]1SC[C@@H]2NC(=O)N[C@@H]21)[C@@H](C)O)C(=O)N[C@H](C(=O)N[C@@H](CCCCN)C(=O)N[C@H](C(=O)O)C(C)C)[C@@H](C)O` [PTEN_11] the BI (GRIP1-2) was 0.006, the LogKD (GRIP1-2) was 3.519 and the BI (DFNB31-2) was -0.03. It also gave a LogKD (DFNB31-2) of 3.519, a BI (LNX2-3) of -0.164 and a LogKD (LNX2-3) of 3.519. The BI (DLG1 PDZ 2) was 0.09, the BI (CASK-1) was -0.049 and the LogKD (CASK-1) was 3.519. The BI (MPDZ-11) was 0.021, the LogKD (MPDZ-11) was 3.519 and the BI (ARHGEF12-1) was 0.392. It also gave a Kd (ARHGEF12-1) of 50.3 µM, a BI (APBA3-1) of -0.03 and a LogKD (APBA3-1) of 3.519. The BI (MLLT4-1) was -0.038, the LogKD (MLLT4-1) was 3.519 and the BI (CARD11-1) was -0.016. The LogKD (CARD11-1) was 3.519, the BI (IL16-2) was -0.132 and the LogKD (IL16-2) was 3.519.
